Active and inactive are the calls of the source. The calls are words filed in the database; no cut-off is given here.
Assays:
[1] = test system: Influenza A virus; test: Antiviral activity against Influenza A virus (A/WSN/1933(H1N1)) harboring neuraminidase H275Y mutant infected in BALB/c mouse assessed as mouse survival at 0.96 umol/day, po for 5 consecutive days measured on day 14 post dose; assay type: functional
[2] = test system: Influenza A virus; test: Antiviral activity against Influenza A virus (A/WSN/1933(H1N1)) harboring neuraminidase H275Y mutant infected in BALB/c mouse assessed as recovery of mouse weight at 0.96 umol/day, po for 5 consecutive days measured on day 14 post dose; assay type: functional, organism-based
[3] = test system: Mus musculus; test: Toxicity in BALB/c mouse infected with Influenza A virus (A/WSN/1933(H1N1)) harboring neuraminidase H275Y mutant assessed as change in body weight at 0.96 umol/day, po for 5 consecutive days; assay type: organism-based; details: in vivo
[4] = test system: Influenza A virus; test: Antiviral activity against Influenza A virus (A/WSN/1933(H1N1)) harboring neuraminidase H275Y mutant infected in MDCK cells assessed as inhibition of virus-induced cytopathic effect after 48 hrs by CellTiter96 Aqueous non-radioactive cell proliferation assay; assay type: functional, organism-based
[5] = test system: Influenza A virus; test: Antiviral activity against Influenza A virus (A/WSN/1933(H1N1)) harboring neuraminidase H275Y mutant infected in BALB/c mouse assessed as mouse survival at 0.96 umol/day, po for 5 consecutive days measured on day 10 post dose; assay type: functional

| SMILES | Activity [1] | Activity [2] | Activity [3] | EC50 [4] [nM] | Survival [5] [%] | Survival [1] [%] |
| --- | --- | --- | --- | --- | --- | --- |
| CCC(CC)[C@H](NC(C)=O)[C@@H]1[C@H](OC(=O)NCCCOCCCc2ccc(O)c(O)c2)[C@@H](C(=O)O)C[C@H]1NC(=N)N | Active | Active | Non-Toxic | 71.6 |  |  |
| CCOC(=O)C1=C[C@@H](OC(CC)CC)[C@H](NC(C)=O)[C@@H](N)C1 [OSELTAMIVIR] |  |  |  |  | 20 |  |
| CCC(CC)[C@H](NC(C)=O)[C@@H]1[C@H](OC(=O)NCCCNC(=O)/C=C/c2ccc(O)c(O)c2)[C@@H](C(=O)O)C[C@H]1NC(=N)N |  | Active | Non-Toxic | 18.1 |  | 90 |
| CCC(CC)[C@H](NC(C)=O)[C@@H]1[C@H](OC(=O)NCCCOC(=O)/C=C/c2ccc(O)c(O)c2)[C@@H](C(=O)O)C[C@H]1NC(=N)N | Active | Active | Non-Toxic | 15.5 |  |  |
| CCC(CC)OC1C=C(C(=O)O)C[C@H](N)[C@H]1NC(C)=O (some centres not stated) |  |  |  | 3520 |  |  |
| CCC(CC)[C@H](NC(C)=O)[C@@H]1[C@H](O)[C@@H](C(=O)O)C[C@H]1NC(=N)N [PERAMIVIR ANHYDROUS] |  |  |  | 643 |  |  |
| CCC(CC)[C@H](NC(C)=O)[C@@H]1[C@H](OC(=O)NCCCN)[C@@H](C(=O)O)C[C@H]1NC(=N)N |  |  |  | 405 |  |  |
| CCC(CC)[C@H](NC(C)=O)[C@@H]1[C@H](OC(=O)NCCCO)[C@@H](C(=O)O)C[C@H]1NC(=N)N |  |  |  | 1010 |  |  |
